Measured values: publication PMC10066365, “Nemacol is a small molecule inhibitor of C. elegans vesicular acetylcholine transporter with anthelmintic potential” (Nature Communications, 2023)
Where “and” joins values, the source holds several entries; their conditions need not be identical. Equal values may be shown once.

Test system: C. elegans
Test: C. elegans motor phenotype scoring on solid media (Punc/jerky-unc, coiled, paralyzed), wild-type young adults
Type: in vivo, Caenorhabditis elegans
Conditions: for any phene, mean % fraction of young adults exhibiting any phenotype (coiled, jerky-Unc or paralyzed) / atypical locomotion (number of animals) / coiled (number of animals) / no phene (number of animals) / paralyzed (number of animals): one hour; for any phene, mean % fraction of young adults exhibiting any phenotype (coiled, jerky-Unc or paralyzed): mean of three biological replicates; for atypical locomotion (number of animals) / coiled (number of animals) / no phene (number of animals) / paralyzed (number of animals): young adults, 20 animals per trial, single replicate counts; for AVERAGES Fraction Coiled / AVERAGES Fraction Paralyzed / AVERAGES Fraction Punc: average of 3 replicates
[1] = 15 μM, 30 min, single replicate
[2] = 15 μM, 60 min, single replicate
[3] = 15 μM, 90 min, single replicate
[4] = 15 μM, 120 min, single replicate
[5] = 15 μM, 240 min, single replicate
[6] = 15 μM, 360 min, single replicate
[7] = 30 μM, 30 min, single replicate
[8] = 30 μM, 60 min, single replicate
[9] = 30 μM, 90 min, single replicate

In the case of O=[N+]([O-])c1ccc(N2CCN(CC3CC=CCC3)CC2)cc1 (centres unmarked) [Nemacol-4], the “any phene, mean % fraction of young adults exhibiting any phenotype (coiled, jerky-Unc or paralyzed)” value (3.75uM) is reported as 15%, the “atypical locomotion (number of animals)” value (3.75uM) is reported as 0 and 4 and 11 and the “coiled (number of animals)” value (3.75uM) is reported as 0 and 1. For the same molecule, the “no phene (number of animals)” value (3.75uM) was 20 and 14 and 8, the “paralyzed (number of animals)” value (3.75uM) was 0 and 1 and the “AVERAGES Fraction Coiled” value (15 μM, 30 min) was 0.0. For the same molecule, the “AVERAGES Fraction Paralyzed” value (15 μM, 30 min) was 0.0, the “AVERAGES Fraction Punc” value (15 μM, 30 min) was 0.222 and the “C1 (number of animals)” value [1] was 0. The “C2 (number of animals)” value [1] was 0, the “Fraction Coiled” value [1] was 0.0 and the “Fraction Paralyzed” value [1] was 0.0. The “Fraction Punc” value [1] was 0.111 and 0.4, the “NP (number of animals)” value [1] was 16 and 11 and the “P (number of animals)” value [1] was 0. For the same molecule, the “Punc (number of animals)” value [1] was 2 and 7, the “AVERAGES Fraction Coiled” value (15 μM, 60 min) was 0.0185 and the “AVERAGES Fraction Paralyzed” value (15 μM, 60 min) was 0.0. For the same molecule, the “AVERAGES Fraction Punc” value (15 μM, 60 min) was 0.426, the “C1 (number of animals)” value [2] was 1 and the “C2 (number of animals)” value [2] was 0. For the same molecule, the “Fraction Coiled” value [2] was 0.0556, the “Fraction Paralyzed” value [2] was 0.0 and the “Fraction Punc” value [2] was 0.4 and 0.6. The “NP (number of animals)” value [2] was 10 and 7, the “P (number of animals)” value [2] was 0 and the “Punc (number of animals)” value [2] was 7 and 11. For the same molecule, the “AVERAGES Fraction Coiled” value (15 μM, 90 min) was 0.0, the “AVERAGES Fraction Paralyzed” value (15 μM, 90 min) was 0.0 and the “AVERAGES Fraction Punc” value (15 μM, 90 min) was 0.352. For the same molecule, the “C1 (number of animals)” value [3] was 0, the “C2 (number of animals)” value [3] was 0 and the “Fraction Coiled” value [3] was 0.0. The “Fraction Paralyzed” value [3] was 0.0, the “Fraction Punc” value [3] was 0.5 and the “NP (number of animals)” value [3] was 9. For the same molecule, the “P (number of animals)” value [3] was 0, the “Punc (number of animals)” value [3] was 9 and the “AVERAGES Fraction Coiled” value (15 μM, 120 min) was 0.0185. The “AVERAGES Fraction Paralyzed” value (15 μM, 120 min) was 0.0, the “AVERAGES Fraction Punc” value (15 μM, 120 min) was 0.3 and the “C1 (number of animals)” value [4] was 0. For the same molecule, the “C2 (number of animals)” value [4] was 0, the “Fraction Coiled” value [4] was 0.0 and the “Fraction Paralyzed” value [4] was 0.0. The “Fraction Punc” value [4] was 0.333 and 0.4, the “NP (number of animals)” value [4] was 12 and 11 and the “P (number of animals)” value [4] was 0. For the same molecule, the “Punc (number of animals)” value [4] was 6 and 7, the “AVERAGES Fraction Coiled” value (15 μM, 240 min) was 0.0185 and the “AVERAGES Fraction Paralyzed” value (15 μM, 240 min) was 0.0. For the same molecule, the “AVERAGES Fraction Punc” value (15 μM, 240 min) was 0.0741, the “C1 (number of animals)” value [5] was 1 and the “C2 (number of animals)” value [5] was 0. The “Fraction Coiled” value [5] was 0.0556, the “Fraction Paralyzed” value [5] was 0.0 and the “Fraction Punc” value [5] was 0.0 and 0.167. For the same molecule, the “NP (number of animals)” value [5] was 15, the “P (number of animals)” value [5] was 0 and the “Punc (number of animals)” value [5] was 0 and 3. The “AVERAGES Fraction Coiled” value (15 μM, 360 min) was 0.0, the “AVERAGES Fraction Paralyzed” value (15 μM, 360 min) was 0.0 and the “AVERAGES Fraction Punc” value (15 μM, 360 min) was 0.0. The “C1 (number of animals)” value [6] was 0, the “C2 (number of animals)” value [6] was 0 and the “Fraction Coiled” value [6] was 0.0. The “Fraction Paralyzed” value [6] was 0.0, the “Fraction Punc” value [6] was 0.0 and the “NP (number of animals)” value [6] was 18. The “P (number of animals)” value [6] was 0, the “Punc (number of animals)” value [6] was 0 and the “Next Day Animals alive (moving fine)” value (15 μM, next day, single replicate) was “alive, recovered”. The “any phene, mean % fraction of young adults exhibiting any phenotype (coiled, jerky-Unc or paralyzed)” value (15uM) was 45%, the “atypical locomotion (number of animals)” value (15uM) was 4 and 2 and 5 and 8 and the “coiled (number of animals)” value (15uM) was 0 and 1 and 6 and 3. The “no phene (number of animals)” value (15uM) was 16 and 15 and 17 and 18 and 0, the “paralyzed (number of animals)” value (15uM) was 0 and 9 and the “AVERAGES Fraction Coiled” value (30 μM, 30 min) was 0.0556. The “AVERAGES Fraction Paralyzed” value (30 μM, 30 min) was 0.0, the “AVERAGES Fraction Punc” value (30 μM, 30 min) was 0.6 and the “C1 (number of animals)” value [7] was 0 and 2. The “C2 (number of animals)” value [7] was 1 and 0, the “Fraction Coiled” value [7] was 0.0556 and 0.0 and 0.111 and the “Fraction Paralyzed” value [7] was 0.0. The “Fraction Punc” value [7] was 0.6 and 0.444 and 0.7, the “NP (number of animals)” value [7] was 6 and 10 and 3 and the “P (number of animals)” value [7] was 0. The “Punc (number of animals)” value [7] was 11 and 8 and 13, the “AVERAGES Fraction Coiled” value (30 μM, 60 min) was 0.0752 and the “AVERAGES Fraction Paralyzed” value (30 μM, 60 min) was 0.0. For the same molecule, the “AVERAGES Fraction Punc” value (30 μM, 60 min) was 0.7, the “C1 (number of animals)” value [8] was 0 and the “C2 (number of animals)” value [8] was 3 and 1 and 0. For the same molecule, the “Fraction Coiled” value [8] was 0.167 and 0.0588 and 0.0, the “Fraction Paralyzed” value [8] was 0.0 and the “Fraction Punc” value [8] was 0.7 and 0.529 and 0.9. For the same molecule, the “NP (number of animals)” value [8] was 2 and 7 and 1, the “P (number of animals)” value [8] was 0 and the “Punc (number of animals)” value [8] was 13 and 9 and 17. The “AVERAGES Fraction Coiled” value (30 μM, 90 min) was 0.0556, the “AVERAGES Fraction Paralyzed” value (30 μM, 90 min) was 0.0556 and the “AVERAGES Fraction Punc” value (30 μM, 90 min) was 0.667. The “C1 (number of animals)” value [9] was 0, the “C2 (number of animals)” value [9] was 1 and 2 and 0 and the “Fraction Coiled” value [9] was 0.0556 and 0.111 and 0.0. For the same molecule, the “Fraction Paralyzed” value [9] was 0.167 and 0.0, the “Fraction Punc” value [9] was 0.7 and 0.5 and 0.8 and the “NP (number of animals)” value [9] was 1 and 7 and 4. The “P (number of animals)” value [9] was 3 and 0 and the “Punc (number of animals)” value [9] was 13 and 9 and 14.
